The source of these data is PubChem BioAssay AID1259407 (Chemical Carcinogenesis Research Information System (CCRIS), 2018).

Active and inactive are the calls of the source. How the calls were made is not given here.

The series has as its system CCRIS mutagenicity, Ames/micronucleus/aberration tests. The series is described as follows: CCRIS mutagenicity studies.

On to `Nc1ccc2c(c1)C(=O)c1ccccc1C2=O`, for which the mutagenic call was “inactive; negative” (End Point: IN VITRO CHROMOSOMAL ABERRATIONS, Test System: CHL CELLS, Metabolic Activation: RAT, LIVER, S-9, SODIUM PHENOBARBITAL AND 5,6-BENZOFLAVONE); “active; positive” (Test System: AMES SALMONELLA TYPHIMURIUM, Strain/Indicator: TA98, Metabolic Activation: HAMSTER, LIVER, S-9, AROCLOR 1254, Method: STANDARD PLATE); “active; positive” (Test System: AMES SALMONELLA TYPHIMURIUM, Strain/Indicator: TA98, Metabolic Activation: HAMSTER, LIVER, S-9, Method: STANDARD PLATE); “active; positive” (Test System: AMES SALMONELLA TYPHIMURIUM, Strain/Indicator: TA98, Metabolic Activation: MOUSE, LIVER, S-9, AROCLOR 1254, Method: STANDARD PLATE); “active; positive” (Test System: AMES SALMONELLA TYPHIMURIUM, Strain/Indicator: TA98, Metabolic Activation: MOUSE, LIVER, S-9, Method: STANDARD PLATE); “inactive; negative” (Test System: AMES SALMONELLA TYPHIMURIUM, Strain/Indicator: TA98, Metabolic Activation: NONE, Method: STANDARD PLATE). The mutagenic call is “active; positive” (Test System: AMES SALMONELLA TYPHIMURIUM, Strain/Indicator: TA98, Metabolic Activation: RAT, LIVER, S-9, AROCLOR 1254, Method: STANDARD PLATE); “active; positive” (Test System: AMES SALMONELLA TYPHIMURIUM, Strain/Indicator: TA98, Metabolic Activation: RAT, LIVER, S-9, Method: STANDARD PLATE); “active; positive” (Test System: AMES SALMONELLA TYPHIMURIUM, Strain/Indicator: TA100, Metabolic Activation: HAMSTER, LIVER, S-9, AROCLOR 1254, Method: STANDARD PLATE); “active; positive” (Test System: AMES SALMONELLA TYPHIMURIUM, Strain/Indicator: TA100, Metabolic Activation: HAMSTER, LIVER, S-9, Method: STANDARD PLATE); “active; positive” (Test System: AMES SALMONELLA TYPHIMURIUM, Strain/Indicator: TA100, Metabolic Activation: MOUSE, LIVER, S-9, AROCLOR 1254, Method: STANDARD PLATE); “inactive; negative” (Test System: AMES SALMONELLA TYPHIMURIUM, Strain/Indicator: TA100, Metabolic Activation: NONE, Method: STANDARD PLATE). Moreover, the mutagenic call (Test System: AMES SALMONELLA TYPHIMURIUM, Strain/Indicator: TA100, Metabolic Activation: RAT, LIVER, S-9, AROCLOR 1254, Method: STANDARD PLATE) is “active; positive”; the mutagenic call (Test System: AMES SALMONELLA TYPHIMURIUM, Strain/Indicator: TA1535, Metabolic Activation: HAMSTER, LIVER, S-9, Method: STANDARD PLATE) was “inactive; negative”; the mutagenic call (Test System: AMES SALMONELLA TYPHIMURIUM, Strain/Indicator: TA1535, Metabolic Activation: MOUSE, LIVER, S-9, AROCLOR 1254, Method: STANDARD PLATE) was “inactive; negative”; the mutagenic call (Test System: AMES SALMONELLA TYPHIMURIUM, Strain/Indicator: TA1535, Metabolic Activation: MOUSE, LIVER, S-9, Method: STANDARD PLATE) was “inactive; negative”; the mutagenic call (Test System: AMES SALMONELLA TYPHIMURIUM, Strain/Indicator: TA1535, Metabolic Activation: NONE, Method: STANDARD PLATE) was “inactive; negative”; the mutagenic call (Test System: AMES SALMONELLA TYPHIMURIUM, Strain/Indicator: TA1537, Metabolic Activation: HAMSTER, LIVER, S-9, AROCLOR 1254, Method: STANDARD PLATE) is “active; positive”. Moreover, the mutagenic call was “active; positive” (Test System: AMES SALMONELLA TYPHIMURIUM, Strain/Indicator: TA1537, Metabolic Activation: HAMSTER, LIVER, S-9, Method: STANDARD PLATE); “active; positive” (Test System: AMES SALMONELLA TYPHIMURIUM, Strain/Indicator: TA1537, Metabolic Activation: MOUSE, LIVER, S-9, AROCLOR 1254, Method: STANDARD PLATE); “active; positive” (Test System: AMES SALMONELLA TYPHIMURIUM, Strain/Indicator: TA1537, Metabolic Activation: MOUSE, LIVER, S-9, Method: STANDARD PLATE); “active; positive” (Test System: AMES SALMONELLA TYPHIMURIUM, Strain/Indicator: TA1537, Metabolic Activation: RAT, LIVER, S-9, AROCLOR 1254, Method: STANDARD PLATE); “active; positive” (Test System: AMES SALMONELLA TYPHIMURIUM, Strain/Indicator: TA1537, Metabolic Activation: RAT, LIVER, S-9, Method: STANDARD PLATE); “active; positive” (Test System: AMES SALMONELLA TYPHIMURIUM, Strain/Indicator: TA1538, Metabolic Activation: HAMSTER, LIVER, S-9, AROCLOR 1254, Method: STANDARD PLATE). Moreover, the mutagenic call by setting is: (Test System: AMES SALMONELLA TYPHIMURIUM, Strain/Indicator: TA1538, Metabolic Activation: HAMSTER, LIVER, S-9, Method: STANDARD PLATE) “active; positive”; (Test System: AMES SALMONELLA TYPHIMURIUM, Strain/Indicator: TA1538, Metabolic Activation: MOUSE, LIVER, S-9, AROCLOR 1254, Method: STANDARD PLATE) “active; positive”; (Test System: AMES SALMONELLA TYPHIMURIUM, Strain/Indicator: TA1538, Metabolic Activation: MOUSE, LIVER, S-9, Method: STANDARD PLATE) “active; positive”; (Test System: AMES SALMONELLA TYPHIMURIUM, Strain/Indicator: TA1538, Metabolic Activation: NONE, Method: STANDARD PLATE) “inactive; negative”; (Test System: AMES SALMONELLA TYPHIMURIUM, Strain/Indicator: TA1538, Metabolic Activation: RAT, LIVER, S-9, AROCLOR 1254, Method: STANDARD PLATE) “active; positive”; (Test System: AMES SALMONELLA TYPHIMURIUM, Strain/Indicator: TA1538, Metabolic Activation: RAT, LIVER, S-9, Method: STANDARD PLATE) “active; positive”. Further, the mutagenic call is, setting by setting: (Test System: E. COLI, Strain/Indicator: WP2 UVRA, Metabolic Activation: HAMSTER, LIVER, S-9, Method: STANDARD PLATE) “inactive; negative”; (Test System: E. COLI, Strain/Indicator: WP2 UVRA, Metabolic Activation: MOUSE, LIVER, S-9, Method: STANDARD PLATE) “inactive; negative”; (Test System: E. COLI, Strain/Indicator: WP2 UVRA, Metabolic Activation: NONE, Method: STANDARD PLATE) “inactive; negative”; (Test System: E. COLI, Strain/Indicator: WP2 UVRA, Metabolic Activation: RAT, LIVER, S-9, Method: STANDARD PLATE) “inactive; negative”; (Test System: MOUSE LYMPHOMA, Strain/Indicator: L5178Y (TK+/TK-), Metabolic Activation: NONE, Method: SUSPENSION/PLATE) “active; positive”.

Regarding `Oc1cc(O)c2c(c1)O[C@H](c1ccc(O)c(O)c1)[C@H](O)C2`, the mutagenic call is “inactive; negative” (Test System: Ames Salmonella typhimurium, Strain/Indicator: TA102, Metabolic Activation: None, Method: Preincubation) and “inactive; negative” (Test System: Ames Salmonella typhimurium, Strain/Indicator: TA102, Metabolic Activation: Rat, Liver, S-9, Aroclor 1254 in 0.154 M KCl, Method: Preincubation).

For the molecule `CCN(CC)c1cccc(O)c1`, the mutagenic call (Test System: AMES SALMONELLA TYPHIMURIUM, Strain/Indicator: TA97, Metabolic Activation: HAMSTER, LIVER, S-9, AROCLOR 1254 (10%), Method: PREINCUBATION) is “active; positive”; the mutagenic call (Test System: AMES SALMONELLA TYPHIMURIUM, Strain/Indicator: TA97, Metabolic Activation: NONE, Method: PREINCUBATION) is “inactive; negative”; the mutagenic call (Test System: AMES SALMONELLA TYPHIMURIUM, Strain/Indicator: TA97, Metabolic Activation: RAT, LIVER, S-9, AROCLOR 1254 (10%), Method: PREINCUBATION) was “active; positive”; the mutagenic call (Test System: AMES SALMONELLA TYPHIMURIUM, Strain/Indicator: TA98, Metabolic Activation: HAMSTER, LIVER, S-9, AROCLOR 1254 (10%), Method: PREINCUBATION) is “active; positive”; the mutagenic call (Test System: AMES SALMONELLA TYPHIMURIUM, Strain/Indicator: TA98, Metabolic Activation: NONE, Method: PREINCUBATION) is “inactive; negative”; the mutagenic call (Test System: AMES SALMONELLA TYPHIMURIUM, Strain/Indicator: TA98, Metabolic Activation: RAT, LIVER, S-9, AROCLOR 1254 (10%), Method: PREINCUBATION) was “active; positive”. For the same molecule, the mutagenic call reads like this: (Test System: AMES SALMONELLA TYPHIMURIUM, Strain/Indicator: TA100, Metabolic Activation: HAMSTER, LIVER, S-9, AROCLOR 1254 (10%), Method: PREINCUBATION) “active; positive”; (Test System: AMES SALMONELLA TYPHIMURIUM, Strain/Indicator: TA100, Metabolic Activation: NONE, Method: PREINCUBATION) “inactive; negative”; (Test System: AMES SALMONELLA TYPHIMURIUM, Strain/Indicator: TA100, Metabolic Activation: RAT, LIVER, S-9, AROCLOR 1254 (10%), Method: PREINCUBATION) “inactive; negative”; (Test System: AMES SALMONELLA TYPHIMURIUM, Strain/Indicator: TA1535, Metabolic Activation: HAMSTER, LIVER, S-9, AROCLOR 1254 (10%), Method: PREINCUBATION) “inactive; negative”; (Test System: AMES SALMONELLA TYPHIMURIUM, Strain/Indicator: TA1535, Metabolic Activation: NONE, Method: PREINCUBATION) “inactive; negative”; (Test System: AMES SALMONELLA TYPHIMURIUM, Strain/Indicator: TA1535, Metabolic Activation: RAT, LIVER, S-9, AROCLOR 1254 (10%), Method: PREINCUBATION) “inactive; negative”.
